Patent publication US9555071B2, “Methods and compositions for the treatment of axonal and neuronal degeneration” (priority 2012, dated 2017)
Values belong to the molecule of their own block, whether it stands above or below them.

How the values were obtained:
[1] = system: β1-integrin receptor; assay: Blocking of the peptide's axonal protection by integrin antagonists; assay type: cell-based
Source text: The RGD motif is known to bind to the integrin receptor. The addition of the peptides of the present invention to primary DRG neuronal cultures induced rapid phosphorylation of neurofilament (NFH), change in NAD synthase nicotinamide mononucleotide adenylyltransferase (NMNAT) expression, and focal adhesion kinase (FAK), an integrin-linked kinase, at the tyrosine 397 residue (Y397), which are indicative of integrin binding to a ligand. Co-administration of echistatin or specific function-blocking antibody to β1-integrin abolished the axonal/neuronal protective ability of the peptide. See Example 1.
The protective effect of the […] peptides was dependent upon their ability to bind to β1-integrin receptor. […] Co-administration of specific function-blocking antibody to β1-integrin abolished the axonal protective ability of the GRGDSP (SEQ ID NO:3) peptide.

[2] = system: postnatal (P4-5) dorsal root ganglion (DRG) and cerebrocortical neurons; assay: Prevention of axonal/neuronal death in cultured neurons; assay type: cell-based; conditions: in vitro; peptides in linear as well as cyclo forms; FIG. 1
Description: Several small RGD peptides containing RGD sequence were generated and their axonal protective effect was tested. The RGD peptides included RGDYK (SEQ ID NO:1), GRGDS (SEQ ID NO:2), FRGDLG (SEQ ID NO:4), FRGDSP (SEQ ID NO:9), IRGDSP (SEQ ID NO:15), RRGDQT (SEQ ID NO:5), KRGDNF (SEQ ID NO:6), PRGDLT (SEQ ID NO:7) in linear as well as cyclo forms.

[3] = system: acrylamide intoxicated MAG−/− mice; assay: Acrylamide-induced axonal degeneration in MAG−/− mice; assay type: in vivo; conditions: for severe gait instability / axonal swelling, beading and segmentation of Aβ fibers in the skin / neuromuscular junction morphology: daily intraperitoneal injection; for severe gait instability: acrylamide for 10 days; for axonal swelling, beading and segmentation of Aβ fibers in the skin / neuromuscular junction morphology: acrylamide, FIG. 2E; for change in amplitudes of CMAP: electrophysiological testing, FIG. 2D
Source text: Furthermore, the RGD peptides can also prevent axonal and/or neuronal degeneration in vivo. See Example 3. Administration of acrylamide, a well characterized toxin, causes axonal “dying back” or degeneration without lymphocytic inflammatory response (Schaumburg et al., 1974, Ko et al., 2000; Ewaleifoh et al, 2012) in wild-type and MAG knockout mice. […] The acrylamide treated MAG−/− mice developed more rapid and severe motor impairment. Most mice fell off the rod even during pretraining and had profound decline in the retention time on the Rotarod (FIG. 2B). There was a decrease in amplitudes of CMAP (FIG. 2.D). […] The neuromuscular junction morphology was normal. On gross observation, there was only mild gait unsteadiness. […] Thus, the RGD peptide was able to prevent significant axonal degeneration that is typically seen in MAG−/− mice treated with acrylamide.
To test that RGD peptides may prevent axonal degeneration in a murine model, acrylamide, a well characterized toxin causing axonal “dying back” or degeneration without lymphocytic inflammatory response (Schaumburg et al., 1974, Ko et al., 2000, Ewaleifoh et at, 2012), was administered to wild-type and MAG−/− mice. When MAG knockout mice at 6 weeks of age were exposed to acrylamide for 10 days, there was markedly impaired gait with marked sensory ataxia and spreading of the toes of the hind limbs. The acrylamide treated MAG−/− mice developed more rapid and severe motor impairment. Most mice fell off the rod even during pretraining and had profound decline in the retention time on the Rotarod (FIG. 2B). There was a 68% decrease in amplitudes of CMAP (FIG. 2.D).
The neuromuscular junction morphology was normal (FIG. 2E). On gross observation, there was only mild gait unsteadiness.

[4] = system: Trembler J mice; assay: Trembler J mice, model of Charcot-Marie-Tooth type 1; assay type: in vivo; conditions: intravenous or intraperitoneal daily injection
Source text: (§1) Similar findings were also seen in other murine models such as Trembler J mice, a murine model of Charcot-Marie-Tooth type 1, MOG-EAE mice, model of multiple sclerosis with significant axonal loss, and Streptozotocin-induced diabetic mouse model. […] Application of the RGD peptide allowed the diseased mice to have a normal or near normal phenotype similar to untreated wild-type animals.
as §1, with “including (1)” for “such as”, “1, (2)” for “1,”, “and (3)” for “and”, “The” for “Application of the”

[5] = system: MOG-EAE mice; assay: MOG-EAE mice, model of multiple sclerosis; assay type: in vivo; conditions: intravenous or intraperitoneal daily injection
Source text: as §1
as §1, with “including (1)” for “such as”, “1, (2)” for “1,”, “and (3)” for “and”, “The” for “Application of the”

[6] = system: Streptozotocin-induced diabetic mouse model; assay: Streptozotocin-induced diabetic mouse model; assay type: in vivo; conditions: intravenous or intraperitoneal daily injection
Source text: as §1
as §1, with “including (1)” for “such as”, “1, (2)” for “1,”, “and (3)” for “and”, “The” for “Application of the”

[7] = Bioavailability and bio-distribution by LC-QTOF mass spectrometer; assay type: in vivo, C57B1 mice; conditions: intraperitoneal 1 μg/g
Description: In contrast, there was no decrease with the co-administration of the peptide (n=10 mice).
To test the bioavailability and bio-distribution of the RGD peptides in vivo, C57B1 mice were given intraperitoneal injection of 1 μg/g weight of cylco-GRGDSP (SEQ ID NO:3) in normal saline (1 mg/ml). The mice were sacrificed at 30, 60, 120, and 240 minutes. Blood, brain, skin, muscle, and tibial and sciatic nerves were collected. The presence of the peptide was detected using LC-QTOF mass spectrometer.

[8] = system: dorsal root ganglion (DRG) explants; assay: Axonal protection of DRG explants exposed to vincristine; assay type: cell-based
Description: Panels A to D are representative images of dorsal root ganglion (DRG) explants after exposure to 50 nM vincristine at 0 and 60 hours. Explants in panels A and B were treated with 50 nM vincristine and 0.5 μg/ml peptide while those in panels C and D were treated with vincristine alone.
DRG explants were exposed to 50 nM vincristine. Explants in panels A and B were treated with 50 nM vincristine and 0.5 μg/ml RGD peptide while those in panels C and D were treated with vincristine alone. […] The cyclo-GRGDSP (SEQ ID NO:3) peptide potently promoted axonal survival in cell culture with EC50=0.5 μM (FIG. 1.E).

[9] = system: axons; conditions: insults such as vincristine, acrylamide, inflammatory mediators; Nguyen et al., 2009; cited from earlier work
[10] = sampled 30, 60, 120, 240 minutes

Molecule: echistatin [reference compound]
effect of co-administered blocker on axonal/neuronal protective ability of the peptide ([1]; co-administration with RGD peptide): abolished

Molecule: RRGDQT: RGD peptide, amino acid sequence RRGDQT (Synthetic Peptide, Linear or Cyclo)
stabilize the axon and prevent axonal/neuronal death [2]: sufficient to stabilize the axon and to prevent axonal/neuronal death

Molecule: PRGDLT: RGD peptide, amino acid sequence PRGDLT (Synthetic Peptide, Linear or Cyclo)
stabilize the axon and prevent axonal/neuronal death [2]: sufficient to stabilize the axon and to prevent axonal/neuronal death

Molecule: GRGDS: RGD peptide, amino acid sequence GRGDS (Synthetic Peptide, Linear or Cyclo)
stabilize the axon and prevent axonal/neuronal death [2]: sufficient to stabilize the axon and to prevent axonal/neuronal death

Molecule: cyclo-FRGDSP: cyclic RGD peptide of sequence FRGDSP (SEQ ID NO:9) (cyclic; Synthetic Peptide, Linear or Cyclo)
severe gait instability [3]: largely prevented | axonal swelling, beading and segmentation of Aβ fibers in the skin [3]: largely prevented | neuromuscular junction morphology [3]: normal | change in amplitudes of CMAP [3]: little to no change

Molecule: FRGDLG: RGD peptide, amino acid sequence FRGDLG (Synthetic Peptide, Linear or Cyclo)
stabilize the axon and prevent axonal/neuronal death [2]: sufficient to stabilize the axon and to prevent axonal/neuronal death

Molecule: RGDYK: RGD peptide, amino acid sequence RGDYK (Synthetic Peptide, Linear or Cyclo)
stabilize the axon and prevent axonal/neuronal death [2]: sufficient to stabilize the axon and to prevent axonal/neuronal death

axonal protective ability of the peptide ([1]; co-administration of specific function-blocking antibody to β1-integrin): abolished
Molecule: GRGDSP: RGD peptide, amino acid sequence GRGDSP

Molecule: FRGDSP: RGD peptide, amino acid sequence FRGDSP (Synthetic Peptide, Linear or Cyclo)
stabilize the axon and prevent axonal/neuronal death [2]: sufficient to stabilize the axon and to prevent axonal/neuronal death

Molecule: cyclo-IRGDSP: cyclic RGD peptide of sequence IRGDSP (SEQ ID NO:15) (cyclic; Synthetic Peptide, Linear or Cyclo)
severe gait instability [3]: largely prevented | axonal swelling, beading and segmentation of Aβ fibers in the skin [3]: largely prevented | neuromuscular junction morphology [3]: normal | change in amplitudes of CMAP [3]: little to no change | axonal/neuronal degeneration and behavioral deficits [4]: almost completely abolished | axonal/neuronal degeneration and behavioral deficits [5]: almost completely abolished | axonal/neuronal degeneration and behavioral deficits [6]: almost completely abolished

Molecule: IRGDSP: RGD peptide, amino acid sequence IRGDSP (Synthetic Peptide, Linear or Cyclo)
stabilize the axon and prevent axonal/neuronal death [2]: sufficient to stabilize the axon and to prevent axonal/neuronal death

Molecule: cyclo-FRGDLP: cyclic RGD peptide of sequence FRGDLP (SEQ ID NO:8) (cyclic; Synthetic Peptide, Linear or Cyclo)
severe gait instability [3]: largely prevented | axonal swelling, beading and segmentation of Aβ fibers in the skin [3]: largely prevented | neuromuscular junction morphology [3]: normal | change in amplitudes of CMAP [3]: little to no change

Molecule: N=C(N)NCCC[C@@H]1NC(=O)CNC(=O)[C@@H]2CCCN2C(=O)[C@H](CO)NC(=O)[C@H](CC(=O)O)NC(=O)CNC1=O [cyclo-GRGDSP]
severe gait instability [3]: largely prevented | axonal swelling, beading and segmentation of Aβ fibers in the skin [3]: largely prevented | neuromuscular junction morphology [3]: normal | change in amplitudes of CMAP [3]: little to no change | axonal/neuronal degeneration and behavioral deficits [4]: almost completely abolished | peptide detected in sciatic nerves ([7]; all time points up to 4 hours, FIG. 2A): detected in high concentration | peptide detected in plasma [7, 10]: detected | peptide levels in brain [7, 10]: only evident in the first hour | EC50 ([8]; DRG explants exposed to 50 nM vincristine, FIG. 1E, read-out: EC50, axonal survival in cell culture): 500 nM | neuronal death (TUNEL-positive cells) ([8]; associated with axonal protection, FIG. 1F): marked decreased in neuronal death | axonal/neuronal degeneration and behavioral deficits [5]: almost completely abolished | axonal/neuronal degeneration and behavioral deficits [6]: almost completely abolished

Molecule: KRGDNF: RGD peptide, amino acid sequence KRGDNF (Synthetic Peptide, Linear or Cyclo)
stabilize the axon and prevent axonal/neuronal death [2]: sufficient to stabilize the axon and to prevent axonal/neuronal death

B1: MAG: transmembrane glycoprotein containing five Ig-like domains; adhesion molecule of the immunoglobin superfamily (protein, UniProt P20916 20-626, looked up)
Myelin-associated glycoprotein: GHWGAWMPSSISAFEGTCVSIPCRFDFPDELRPAVVHGVWYFNSPYPKNYPPVVFKSRTQVVHESFQGRSRLLGDLGLRNCTLLLSNVSPELGGKYYFRGDLGGYNQYTFSEHSVLDIVNTPNIVVPPEVVAGTEVEVSCMVPDNCPELRPELSWLGHEGLGEPAVLGRLREDEGTWVQVSLLHFVPTREANGHRLGCQASFPNTTLQFEGYASMDVKYPPVIVEMNSSVEAIEGSHVSLLCGADSNPPPLLTWMRDGTVLREAVAESLLLELEEVTPAEDGVYACLAENAYGQDNRTVGLSVMYAPWKPTVNGTMVAVEGETVSILCSTQSNPDPILTIFKEKQILSTVIYESELQLELPAVSPEDDGEYWCVAENQYGQRATAFNLSVEFAPVLLLESHCAAARDTVQCLCVVKSNPEPSVAFELPSRNVTVNESEREFVYSERSGLVLTSILTLRGQAQAPPRVICTARNLYGAKSLELPFQGAHRLMWAKIGPVGAVVAFAILIAIVCYITQTRRKKNVTESPSFSAGDNPPVLFSSDFRISGAPEKYESERRLGSERRLLGLRGEPPELDLSYSHSDLGKRPTKDSYTLTEELAEYAEIRVK
axonal survival / prevention of axonal degeneration caused by vincristine [9]: promotes axonal survival
